Measurements published in US20170000133A1, “BENZOXABOROLE FUNGICIDES” (SYNGENTA PARTICIPATIONS AG, priority 2013, published 2017).

Test system: Pythium ultimum
Assay: Pythium ultimum / liquid culture (seedling damping off)
Type: cell-based
Conditions: Globisporangium ultimum; 200 ppm; potato dextrose broth, 24° C., 2-3 days after application; read-out: disease control (inhibition of growth determined photometrically)

Compound | inhibition at 200 ppm [%]
Cc1ccccc1NC(=O)c1cc2c(cc1F)COB2O [Compound 148] | ≥ 80
O=C(Nc1ccc2ccccc2n1)c1cc2c(cc1Cl)COB2O [Compound 154] | ≥ 80
O=C(Nc1cccc(F)c1)c1cc2c(cc1F)COB2O [Compound 157] | ≥ 80
O=C(OCc1ccco1)c1cc2c(cc1Cl)COB2O [Compound 210] | ≥ 80
C=CCC(OC(=O)c1cc2c(cc1Cl)COB2O)C(=O)OC (stereo not shown) [Compound 222] | ≥ 80
CC(C#N)OC(=O)c1ccc2c(c1)B(O)OC2 (stereo not shown) [Compound 315] | ≥ 80
C[Si](C)(C)CCCOC(=O)c1ccc2c(c1)B(O)OC2 [Compound 316] | ≥ 80
O=C(OCC(Cl)(Cl)Cl)c1ccc2c(c1)B(O)OC2 [Compound 321] | ≥ 80
C=CC(=O)OCC(C)OC(=O)c1cc2c(cc1F)COB2O (stereo not shown) [Compound 372] | ≥ 80
O=C(OCCC(F)(F)F)c1cc2c(cc1F)COB2O [Compound 431] | ≥ 80

Test system: Mycosphaerella graminicola (Septoria tritici)
Assay: Mycosphaerella graminicola (Septoria tritici) / liquid culture (Septoria blotch)
Type: cell-based
Conditions: Zymoseptoria tritici, PDB potato dextrose broth, 24° C., 4-5 days after application, read-out: disease control (inhibition of growth determined photometrically)
Protocol: 13. Mycosphaerella graminicola (Septoria tritici)/Liquid Culture (Septoria Blotch): Conidia of the fungus from cryogenic storage were directly mixed into nutrient broth (PDB potato dextrose broth). After placing a DMSO solution of test compound into a 96-well microtiter plate at an application rate of 200 ppm, the nutrient broth containing the fungal spores was added. The test plates were incubated at 24° C. and the inhibition of growth was determined photometrically 4-5 days after application.

Compound | inhibition at 200 ppm [%]
O=C(Nc1ccc2ccccc2n1)c1cc2c(cc1Cl)COB2O [Compound 154] | ≥ 80
O=C(OCC(Cl)(Cl)Cl)c1ccc2c(c1)B(O)OC2 [Compound 321] | ≥ 80

Test system: Gaeumannomyces graminis
Assay: Gaeumannomyces graminis / liquid culture (take-all of cereals)
Type: cell-based
Conditions: PDB potato dextrose broth, 24° C., 4-5 days after application, read-out: disease control (inhibition of growth determined photometrically)
Protocol: 14. Gaeumannomyces graminis/Liquid Culture (Take-all of Cereals): Mycelial fragments of the fungus from cryogenic storage were directly mixed into nutrient broth (PDB potato dextrose broth). After placing a DMSO solution of test compound into a 96-well microtiter plate at an application rate of 200 ppm, the nutrient broth […], containing the fungal spores is added. The test plates were incubated at 24° C. and the inhibition of growth was determined photometrically 4-5 days after application.

Compound | inhibition at 200 ppm [%]
O=C(Nc1cccc(F)c1)c1cc2c(cc1F)COB2O [Compound 157] | ≥ 80
O=C(OCCc1ccc(Cl)cc1Cl)c1cc2c(cc1Cl)COB2O [Compound 190] | ≥ 80
O=C(OCc1ccc(C(F)(F)F)cc1Cl)c1cc2c(cc1Cl)COB2O [Compound 200] | ≥ 80
O=C(OCc1ccco1)c1cc2c(cc1Cl)COB2O [Compound 210] | ≥ 80
O=C(Nc1cc(C(F)(F)F)ccc1N1CCOCC1)c1ccc2c(c1)B(O)OC2 [Compound 291] | ≥ 80
C[Si](C)(C)CCCOC(=O)c1ccc2c(c1)B(O)OC2 [Compound 316] | ≥ 80
O=C(OCC(Cl)(Cl)Cl)c1ccc2c(c1)B(O)OC2 [Compound 321] | ≥ 80
O=C(OCCC(F)(F)F)c1cc2c(cc1F)COB2O [Compound 431] | ≥ 80

Test system: Monographella nivalis (Microdochium nivale)
Assay: Monographella nivalis (Microdochium nivale) / liquid culture (foot rot cereals)
Type: cell-based
Conditions: PDB potato dextrose broth, 24° C., 4-5 days after application, read-out: disease control (inhibition of growth determined photometrically)

Compound | inhibition at 200 ppm [%]
O=C(OCCc1ccc(Cl)cc1Cl)c1cc2c(cc1Cl)COB2O [Compound 190] | ≥ 80
O=C(OCc1ccc(C(F)(F)F)cc1Cl)c1cc2c(cc1Cl)COB2O [Compound 200] | ≥ 80
C=CCC(OC(=O)c1cc2c(cc1Cl)COB2O)C(=O)OC (stereo not shown) [Compound 222] | ≥ 80
C[Si](C)(C)CCCOC(=O)c1ccc2c(c1)B(O)OC2 [Compound 316] | ≥ 80
O=C(OCC(Cl)(Cl)Cl)c1ccc2c(c1)B(O)OC2 [Compound 321] | ≥ 80
C=CC(=O)OCC(C)OC(=O)c1cc2c(cc1F)COB2O (stereo not shown) [Compound 372] | ≥ 80
O=C(OCCC(F)(F)F)c1cc2c(cc1F)COB2O [Compound 431] | ≥ 80

Test system: Thanatephorus cucumeris (Rhizoctonia solani)
Assay: Thanatephorus cucumeris (Rhizoctonia solani) / liquid culture (foot rot, damping-off)
Type: cell-based
Conditions: PDB potato dextrose broth, 24° C., 3-4 days after application, read-out: disease control (inhibition of growth determined photometrically)
Protocol: 17. Thanatephorus cucumeris (Rhizoctonia solani)/Liquid Culture (Foot Rot, Damping-Off): Mycelia fragments of a newly grown liquid culture of the fungus were directly mixed into nutrient broth (PDB potato dextrose broth). After placing a DMSO solution of the test compounds into a 96-well microtiter plate at an application rate of 200 ppm, the nutrient broth containing the fungal material was added. The test plates were incubated at 24° C. and the inhibition of growth was determined photometrically 3-4 days after application.

Compound | inhibition at 200 ppm [%]
Cc1ccccc1NC(=O)c1cc2c(cc1F)COB2O [Compound 148] | ≥ 80
O=C(OCc1ccco1)c1cc2c(cc1Cl)COB2O [Compound 210] | ≥ 80
C=CCC(OC(=O)c1cc2c(cc1Cl)COB2O)C(=O)OC (stereo not shown) [Compound 222] | ≥ 80
CC(C#N)OC(=O)c1ccc2c(c1)B(O)OC2 (stereo not shown) [Compound 315] | ≥ 80
C[Si](C)(C)CCCOC(=O)c1ccc2c(c1)B(O)OC2 [Compound 316] | ≥ 80
O=C(OCC(Cl)(Cl)Cl)c1ccc2c(c1)B(O)OC2 [Compound 321] | ≥ 80
O=C(OCCC(F)(F)F)c1cc2c(cc1F)COB2O [Compound 431] | ≥ 80
